Measured values reported in paper PMC6936460 (Proceedings of the National Academy of Sciences of the …, 2019).

System: P. aeruginosa C1
Experiment: P. aeruginosa lung infection mouse model
Type: in vivo, C57BL/6 mice
Details: for median lung bacteria load: 2 times per day for 3 days, n = 8, vehicle 2.51 × 10^7 CFU/g; for inhibition of lung colonization: vs vehicle

## colistin sulfate
2 mg/kg i.v.
  median lung bacteria load: 1.72 × 10^7 CFU/g
  inhibition of lung colonization: 31%
4 mg/kg i.v.
  median lung bacteria load: 0.86 × 10^7 CFU/g
  inhibition of lung colonization: 65%
